Results reported in patent US8628767B2, “Purine nucleoside phosphorylase as enzymatic activator of nucleoside prodrugs” (priority 2008, dated 2014).
Where a chain is given by its changes, count along the chain named. In names and notes the source's numbering stands. Like-named read-outs stand apart in the source and are kept apart here.

B1: T. vaginalis PNP: wild-type Trichomonas vaginalis purine nucleoside phosphorylase, amino acid sequence SEQ ID NO: 5 (protein, listed as Trichomonas vaginalis)
chain: MATPHNSAQVGDFAETVLMCGDPLRAKLIAETYLENPKLVNNVRGIQGYTGTYKGKPISVMGHGMGLPSICIYAEELYSTYKVKTIIRVGTCGAIDMDIHTRDIVIFTSAGTNSKINRIRFMDHDYPATASFDVVCALVDAAKELNIPAKVGKGFSTDLFYNPQTELAQLMNKFHFLAVEMESAGLFPIADLYGARAGCICTVSDHILHHEETTAEERQNSFQNMMKIALEAAIKL
B2: Salmonella typhimurium PNP: purine nucleoside phosphorylase of Salmonella typhimurium (protein, UniProt Q8ZJV7 1-239, looked up)
Purine nucleoside …: MATPHINAEMGDFADVVLMPGDPLRAKHIAETFLENVREVNNVRGMLGFTGTYKGRKISVMGHGMGIPSCSIYTKELITDFGVKKIIRVGSCGAVRMDVKLRDVVIGMGACTDSKVNRIRFKDHDFAAIADFDMVRNAVDAAKALGVDARVGNLFSADLFYSPDGEMFDVMEKYGVLGVEMEAAGIYGVAAEFGAKALTICTVSDHIRTHEQTTAAERQTTFNDMIKIALESVLLGDKE
B3: human PNP: human purine nucleoside phosphorylase (protein, UniProt P00491 1-289, looked up)
Purine nucleoside …: MENGYTYEDYKNTAEWLLSHTKHRPQVAIICGSGLGGLTDKLTQAQIFDYGEIPNFPRSTVPGHAGRLVFGFLNGRACVMMQGRFHMYEGYPLWKVTFPVRVFHLLGVDTLVVTNAAGGLNPKFEVGDIMLIRDHINLPGFSGQNPLRGPNDERFGDRFPAMSDAYDRTMRQRALSTWKQMGEQRELQEGTYVMVAGPSFETVAECRVLQKLGADAVGMSTVPEVIVARHCGLRVFGFSLITNKVIMDYESLEKANHEEVLAAGKQAAQKLEQFVSILMASIPLPDKAS
B4: tm-PNP: tailed mutant E. coli PNP, 30 amino acid tail in place of the terminal glutamic acid (SEQ ID NO: 8) (protein, listed as Trichomonas vaginalis)
chain: MATPHINAEMGDFADVVLMPGDPLRAKYIAETFLEDAREVNNVRGMLGFTGTYKGRKISVMGHGMGIPSCSIYTKELITDFGVKKIIRVGSCGAVLPHVKLRDVVIGMGACTDSKVNRIRFKDHDFAAIADFDMVRNAVDAAKALGIDARVGNLFSADLFYSPDGEMFDVMEKYGILGVEMEAAGIYGVAAEFGAKALTICTVSDHIRTHEQTTAAERQTTFNDMIKIALESVLLGDKGKRPRGSSRVDLQACKLGIFVKEPYFCGVT
B5: E. coli PNP: wild-type E. coli purine nucleoside phosphorylase (protein, UniProt P0ABP8 2-239, looked up)
Purine nucleoside …: ATPHINAEMGDFADVVLMPGDPLRAKYIAETFLEDAREVNNVRGMLGFTGTYKGRKISVMGHGMGIPSCSIYTKELITDFGVKKIIRVGSCGAVLPHVKLRDVVIGMGACTDSKVNRIRFKDHDFAAIADFDMVRNAVDAAKALGIDARVGNLFSADLFYSPDGEMFDVMEKYGILGVEMEAAGIYGVAAEFGAKALTICTVSDHIRTHEQTTAAERQTTFNDMIKIALESVLLGDKE
B6: E. Coli PNP mutant M65V (protein, UniProt P0ABP8 2-239, looked up, variant M65V)
Purine nucleoside …: B5 Purine nucleoside … with M64V

Columns and labels:
[1] = tested on: tumor expressing wild-type E. coli PNP enzyme; conditions: cited from earlier work
T. vaginalis PNP [2] = test: Substrate cleavage by wild-type Tv-PNP (HPLC); assay type: biochemical, Trichomonas vaginalis; conditions: for rate of enzymatic cleavage by T. vaginalis PNP: 100 micromolar substrate, HPLC separation of base from nucleoside; for activity of Tv-PNP as compared to wild-type E. coli PNP: summary of Table 1
Procedure: (§1) The method quantitatively measures the cleavage of substrates in vitro. The purine analog nucleosides (0.1 mM in 500 μl of 100 mM HEPES, pH 7.4, 50 mM potassium phosphate) are combined with 100 μg/ml Tv-PNP or wild-type E. coli PNP. The reaction mixtures are incubated at 25° C. for 1 hour, and the reactions stopped by boiling each sample for 2 minutes. Protein concentration and time of assay are varied depending on activity of enzyme for a particular substrate. Each sample is analyzed by reverse phase HPLC to measure conversion from substrate to product. The nucleoside and purine analogs are eluted from a Spherisorb ODSI (5 μm) column (Keystone Scientific, Inc., State College, Pa.) with a solvent containing 50 mM ammonium dihydrogen phosphate (95%) and acetonitrile (5%). Products are detected by absorbance at 254 nm, and are identified by comparing their retention times and absorption spectra with authentic control samples.
Numerous compounds are tested for efficiency as substrate for Tv-PNP in parallel comparison with E. coli PNP. The compounds include various analogs of adenosine, of inosine, of MeP-dR, and of fluoro- or chloro-substituted adenosine. The enzymes are incubated with 100 micromolar of each compound listed in the table and the rate of enzymatic cleavage is determined by HPLC separation of the base from the nucleoside. […] It is appreciated that the greater biological activity of the Tv-PNP enzyme allows for greater activity in impairing abnormal cell growth when the Tv-PNP is used for treatment of pathological conditions using F-araA as a prodrug substrate.

E. coli PNP = E. coli PNP (Escherichia coli, UniProt P0ABP8); test: Substrate cleavage by wild-type E. coli PNP (HPLC); assay type: biochemical; conditions: 100 micromolar substrate, HPLC separation of base from nucleoside
Procedure: as §1
Numerous compounds are tested for efficiency as substrate for Tv-PNP in parallel comparison with E. coli PNP. […] The enzymes are incubated with 100 micromolar of each compound listed in the table and the rate of enzymatic cleavage is determined by HPLC separation of the base from the nucleoside.

T. vaginalis PNP [3] = conditions: Wang et al.; cited from earlier work
[4] = Tolerated dose of MeP-dR in mice; assay type: in vivo
Excerpt: The formula of Freidenreich et al., Cancer Chemother. Rep., 50:219-244, (1966) is optionally used to determine the maximum tolerated dose of substrate for a human subject. […] This amount or slightly less is expected to maximize tumor cell killing in humans without killing the subject thereby generating a favorable efficacy to safety profile. This standard of effectiveness is accepted in the field of cancer therapy. More preferably, a drug levels administered range from about 10% to 1% of the maximum tolerated dosage (for example, 7.5 mg/m^2-0.75 mg/m^2). It is understood that modes of administration that permit the substrate to remain localized at or near the site of the tumor will be effective at lower doses than systemically administered substrates.

[5] = Cleavage of MeP-dR by PNPs of various origins (HPLC); assay type: biochemical; conditions: 100 μM MeP-dR, enzymes of various purities
[6] = Cleavage of F-araA by PNPs of various origins (HPLC); assay type: biochemical; conditions: for F-araA rate of cleavage: 100 μM F-araA, enzymes of various purities
tumors = test: In vivo efficacy experiments, tm-PNP versus M65V
[7] = equimolar quantities of substrate

Sequence of E. coli PNP (P0ABP8 whole entry): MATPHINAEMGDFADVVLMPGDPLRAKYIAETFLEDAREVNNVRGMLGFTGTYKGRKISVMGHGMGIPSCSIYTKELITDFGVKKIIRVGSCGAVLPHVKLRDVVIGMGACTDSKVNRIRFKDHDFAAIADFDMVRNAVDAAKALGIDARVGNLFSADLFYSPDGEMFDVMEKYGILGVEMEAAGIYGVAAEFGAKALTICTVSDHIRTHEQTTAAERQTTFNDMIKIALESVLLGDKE

| Molecule | rate of enzymatic cleavage by T. vaginalis PNP (T. vaginalis PNP [2]) | rate of enzymatic cleavage by E. coli PNP (E. coli PNP) | MeP-dR rate of cleavage [5] | F-araA rate of cleavage [6] | also measured |
| --- | --- | --- | --- | --- | --- |
| Nc1nc(F)nc2c1ncn2[C@@H]1O[C@H](CO)[C@@H](O)[C@@H]1O [9-(β-D-arabinofuranosyl)-2-fluoroadenine, reference compound] | 32,000 nanomoles per milligrams per hour | 1,250 nanomoles per milligrams per hour |  |  | tumor response [1]: complete responses; cleavage rate by Tv-PNP relative to E. coli PNP (T. vaginalis PNP [2]; Tv-PNP rate / E. coli PNP rate): approximately 23 times; catalytic efficiency of Tv-PNP relative to E. coli PNP (T. vaginalis PNP [2]; Vmax/Km ratio): 25 fold; activity of Tv-PNP as compared to wild-type E. coli PNP (T. vaginalis PNP [2]): more activity; activity of Tv-PNP towards substrate, conventional understanding (T. vaginalis PNP [3]): does not have appreciable activity |
| Cc1ncnc2c1ncn2[C@H]1C[C@H](O)[C@@H](CO)O1 [9-(2-deoxy-β-D-ribofuranosyl]-6-methylpurine] | 484,000 nanomoles per milligrams per hour | 528,000 nanomoles per milligrams per hour |  |  | toxicity ([4]; mice, systemic, 25 mg per kg per day for 9 days (9 doses total)): some toxicity but no lethality; human dosage (maximum tolerated dose) by formula of Freidenreich et al. ([4]; mouse, in vivo, 25 mg/kg): 75 mg/m^2 |
| Cc1ncnc2c1ncn2[C@@H]1O[C@H](CO)[C@@H](O)[C@@H]1O [9-[β-D-arabinofuranosyl]-6-methylpurine] | 570 nanomoles per milligrams per hour | 14 nanomoles per milligrams per hour |  |  |  |
| 9-β-D-pyranosyl-adenine | 2 nanomoles per milligrams per hour | <1 nanomoles per milligrams per hour |  |  |  |
| OC[C@H]1O[C@@H](n2cnc3c(O)ncnc32)C[C@@H]1O [2′-deoxyinosine, reference compound] | 660,000 nanomoles per milligrams per hour | 733,000 nanomoles per milligrams per hour |  |  |  |
| OC[C@H]1O[C@@H](n2cnc3c(O)ncnc32)[C@H](O)[C@@H]1O [Inosine, reference compound] | 154,000 nanomoles per milligrams per hour | 342,000 nanomoles per milligrams per hour |  |  |  |
| Cc1ncnc2c1ncn2[C@@H]1O[C@H]([C@H](C)O)[C@@H](O)[C@H]1O [9-[5-methyl-(talo)-β-D-ribofuranosyl]-6-methylpurine] | 8,400 nanomoles per milligrams per hour | 915 nanomoles per milligrams per hour |  |  | activity of Tv-PNP as compared to wild-type E. coli PNP (T. vaginalis PNP [2]): more activity |
| Nc1ncnc2c1ncn2[C@@H]1O[C@@H](CO)[C@@H](O)[C@H]1O [9-α-L-lyxofuranosyl-adenine] | 22,000 nanomoles per milligrams per hour | 3,700 nanomoles per milligrams per hour |  |  |  |
| Cc1ncnc2c1ncn2[C@@H]1O[C@H]([C@@H](C)O)[C@@H](O)[C@H]1O [9-[5-methyl-(allo)-β-D-ribofuranosyl]-6-methylpurine] | 223 nanomoles per milligrams per hour | 47 nanomoles per milligrams per hour |  |  | activity of Tv-PNP as compared to wild-type E. coli PNP (T. vaginalis PNP [2]): more activity |
| B1 |  |  | 536,000 nmoles/mg/hr | 30,000 nmoles/mg/hr | MeP-dR/F-araA cleavage ratio [6, 7]: 18 |
| B2 |  |  | 9,150 nmoles/mg/hr | 20 nmol/mg/h | MeP-dR/F-araA cleavage ratio [6, 7]: 458 |
| B3 |  |  | 35 nmol/mg/h | <1 nmol/mg/h | MeP-dR/F-araA cleavage ratio [6, 7]: >35 |
| B4 |  |  | 948 nmol/mg/h | 4.8 nmol/mg/h | MeP-dR/F-araA cleavage ratio [6]: 198; selectivity of cleavage of F-araA relative to wild-type E. coli PNP ([6]; from MeP-dR/F-araA ratios 198 vs 422): 2.3 fold; antitumoral activity relative to M65V (tumors): considerably greater antitumoral activity |
| B5 |  |  | 528,000 nmoles/mg/hr | 1,250 nmoles/mg/hr | MeP-dR/F-araA cleavage ratio [6]: 422 |
| B6 |  |  | 1823 nmol/mg/h | 3.9 nmol/mg/h | MeP-dR/F-araA cleavage ratio [6]: 469±52; MeP-dR/F-araA cleavage ratio [6, 7]: 469; MeP-dR/F-araA cleavage ratio ([6]; purified enzyme): 593 |
